Experimental data published in patent publication US7641927B2, “Chewing gum and confectionery compositions containing a stain removing complex, and methods of making and using the same” (Cadbury Adams USA, LLC, priority 2006, dated 2010).

Assay: Stain removal study on stained hydroxyapatite (HAP) disks, CIELAB ΔE
Settings: test solution in artificial human saliva, one hour treatment, 15 ml/min, 37° C.; FIG. 2
Experimental: A flow system was assembled for staining samples of hydroxyapatite (HAP) disks using a staining solution. The staining solution was prepared from a mixture containing tea, coffee and porcine gastric mucin. The staining solution was circulated through the flow system at a rate of about 15 ml/min, and passed continuously over the HAP disks for about 96 hours at about 37° C. After 96 hours, the stained HAP disks were then placed in artificial human saliva (as prepared in Example 5) at a pH of about 7, and were then rinsed and allowed to dry. The HAP disks were segregated into 6 sample groups. Each of the HAP disks were measured to yield a baseline L*a*b stain score in accordance with the Commission International de L'Eclairage Laboratory (CIELAB) color scale. The CIELAB scale quantifies color according to 3 parameters, L* (lightness-darkness scale), a* (red-green chroma), and b* (yellow-blue chroma). In order to obtain reproducible readings, the stained HAP disks were allowed to air-dry at room temperature for about 2 hours before measurement is to be made. The baseline stain measurements were taken by making diffuse reflectance absorbance readings with a Minolta spectrophotometer. The absorbance readings over the entire visible color spectrum were obtained for each HAP disk. […] The overall change in stain level ΔE was determined for each of the treated HAP disks.

SMILES	stain removing activity (ΔE)
OC[C@H]1O[C@@H]2O[C@H]3[C@H](O)[C@@H](O)[C@@H](O[C@H]4[C@H](O)[C@@H](O)[C@@H](O[C@H]5[C@H](O)[C@@H](O)[C@@H](O[C@H]6[C@H](O)[C@@H](O)[C@@H](O[C@H]7[C@H](O)[C@@H](O)[C@@H](O[C@H]8[C@H](O)[C@@H](O)[C@@H](O[C@H]1[C@H](O)[C@H]2O)O[C@@H]8CO)O[C@@H]7CO)O[C@@H]6CO)O[C@@H]5CO)O[C@@H]4CO)O[C@@H]3CO [β-cyclodextrin]	least stain removing activity
CCCCCCCCCCCCCCCCCC(=O)[O-].[Na+] [sodium stearate]	least stain removing activity
